{"source": "paper PMC12384813", "key": {"[1]": {"test": "Solubility in aqueous media", "assay_type": "physicochemical", "conditions": "needs 10% DMSO in saline to fully dissolve"}, "[2]": {"test": "Stability by mass spectrometry at physiological pH", "assay_type": "physicochemical", "conditions": "pH 7.0, over 72 h"}, "U87 MG cells [3]": {"tested_on": "U87 MG cells", "test": "Internalization of ^64Cu-NOTA conjugates (glycine-HCl wash)", "assay_type": "cell-based, human", "protocol": "(§1) U87 MG (1 × 10^5 per well) were seeded in corning 24-well plates and cultured in DMEM with 10% FBS at 37 °C. […] For uptake assay, cells were washed with PBS to collect surface-bound and internalized activity, and for internalization assay, glycine-HCl wash was performed to remove surface bound activity. Moreover, cells were harvested, counted, and radioactivity was measured using a gamma counter. Results were expressed as percentage of total activity (%) in counts per min (CPM)/10^6 cells. For efflux studies, U87 MG cells were incubated with the complexes for 1 h, then washed with PBS, and replaced with fresh medium. The retained activity was measured over 0 to 24 h after washing."}, "[4]": {"tested_on": "SVG p12 normal glial cells"}, "bovine serum albumin": {"molecular_target": "bovine serum albumin (Bos taurus, UniProt P02769)", "sequence (P02769 25-607)": "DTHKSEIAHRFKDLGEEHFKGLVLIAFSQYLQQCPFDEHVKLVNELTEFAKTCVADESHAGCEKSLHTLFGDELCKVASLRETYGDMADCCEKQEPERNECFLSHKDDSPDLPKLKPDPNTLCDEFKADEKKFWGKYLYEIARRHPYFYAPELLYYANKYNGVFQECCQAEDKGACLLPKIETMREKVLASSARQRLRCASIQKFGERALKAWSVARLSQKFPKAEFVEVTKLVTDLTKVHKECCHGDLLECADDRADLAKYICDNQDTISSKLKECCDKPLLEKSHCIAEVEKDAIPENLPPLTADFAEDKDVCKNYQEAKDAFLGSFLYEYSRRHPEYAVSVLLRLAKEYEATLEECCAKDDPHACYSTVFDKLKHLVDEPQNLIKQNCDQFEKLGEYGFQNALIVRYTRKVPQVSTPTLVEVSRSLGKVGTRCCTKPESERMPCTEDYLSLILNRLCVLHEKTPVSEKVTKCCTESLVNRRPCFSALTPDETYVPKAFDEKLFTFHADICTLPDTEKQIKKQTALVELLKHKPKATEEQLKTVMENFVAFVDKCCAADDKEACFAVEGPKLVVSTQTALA", "test": "Binding to bovine serum albumin", "assay_type": "in vitro ADME"}, "U87 MG cells [5]": {"tested_on": "U87 MG cells", "test": "cells", "assay_type": "cell-based, human", "conditions": "U87 MG, 24 h, vs ^natCu-NOTA-TP-c(RGDfK)", "protocol": "In this procedure, U87 MG (2 × 10^4 cells per well) were seeded in BD falcon transparent 96-well plates and incubated for 24 h."}, "SVG p12 cells [6]": {"tested_on": "SVG p12 cells", "test": "Internalization of ^64Cu-NOTA conjugates (glycine-HCl wash)", "assay_type": "cell-based, human", "conditions": "Table S2"}, "[7]": {"test": "Plasma stability by radio-TLC", "assay_type": "in vitro ADME", "conditions": "48 h, 37 °C, mouse plasma", "protocol": "To precipitate plasma proteins, the samples were treated twice with ethanol (1:1, v/v), vortexed for 1 min, and centrifuged at 7000 rpm for 10 min. The soluble fraction was separated by ultracentrifugation, and radioactivity was measured. The resulting supernatant was analyzed by radio-TLC on C18 plates. […] Radio-TLC was developed using 0.1 M sodium citrate buffer (pH 5.5), and radiodetection was performed with an Instant Imager system (BioScan, Washington, DC, USA) (Figure S5C). The supernatant fraction was then analyzed using the same methodology described above."}, "U87 MG cells [8]": {"tested_on": "U87 MG cells", "test": "Efflux kinetics of ^64Cu-NOTA conjugates", "assay_type": "cell-based, human", "conditions": "Table S3", "protocol": "as §1"}, "SVG p12 cells [9]": {"tested_on": "SVG p12 cells", "test": "Cellular uptake of ^64Cu-NOTA conjugates", "assay_type": "cell-based, human", "conditions": "Table S1"}, "U87 MG cells [10]": {"tested_on": "U87 MG cells", "test": "Cellular uptake of ^64Cu-NOTA conjugates", "assay_type": "cell-based, human", "protocol": "as §1"}, "SVG p12 cells [11]": {"tested_on": "SVG p12 cells", "test": "Efflux kinetics of ^64Cu-NOTA conjugates", "assay_type": "cell-based, human", "conditions": "Table S3"}, "SVG p12 cells [12]": {"tested_on": "SVG p12 cells", "test": "Subcellular localization (nucleus/cytoplasm fractions)", "assay_type": "cell-based, human", "protocol": "(§2) The nucleus and cytoplasm of U87 MG and SVG p12 cells were extracted following established procedures as previously reported. […] After incubation, cells were washed and incubated on ice with CSK buffer (0.5% Triton X-100, 300 mM sucrose, 100 mM NaCl, 1 mM EDTA, 2 mM MgCl2, and 10 mM HEPES, pH 6.8) for 2 min. After 5 min centrifugation, supernatant containing cytoplasmic extract was collected and transferred in labeled tubes. The resulting pellets were incubated on ice for 2 min with CSK buffer without Triton X-100 to extract the nuclear fraction. The buffer containing the nuclear fraction was collected into separate tubes. The radioactivity in both cytoplasmic and nuclear fractions was measured using a gamma counter (HIDEX Automatic Gamma Counter 2014)."}, "U87 MG cells [13]": {"tested_on": "U87 MG cells", "test": "Subcellular localization (nucleus/cytoplasm fractions)", "assay_type": "cell-based, human", "protocol": "as §2"}, "[14]": {"conditions": "0.5 h after 1 h incubation and wash"}}}
{"smiles": "N=C(N)NCCC[C@@H]1NC(=O)[C@H](CCCCNC(=O)[C@H](CCCCNC(=O)c2cc(-c3ccccn3)nc(-c3ccccn3)c2)NC(=O)COCCOCCNC(=O)CN2CCN(CC(=O)O)CCN(CC(=O)O)CC2)NC(=O)[C@@H](Cc2ccccc2)NC(=O)[C@H](CC(=O)O)NC(=O)CNC1=O", "note": "[^natCu-NOTA-TP-c(RGDfK), metal not drawn]", "values": [{"measurement": "solubility in aqueous media", "setting": "[1]", "value": "limited solubility in aqueous media"}, {"measurement": "release of copper or platinum (mass spectrometry)", "setting": "[2]", "value": "no detectable release of copper or platinum"}]}
{"smiles": "N=C(N)NCCC[C@@H]1NC(=O)[C@H](CCCCNC(=O)[C@H](CCCCNC(=O)c2cc(-c3ccccn3)nc(-c3ccccn3)c2)NC(=O)COCCOCCNC(=O)CN2CCN(CC(=O)O)CCN(CC(=O)O)CC2)NC(=O)[C@@H](Cc2ccccc2)NC(=O)[C@H](CC(=O)O)NC(=O)CNC1=O", "note": "[metal not drawn]", "values": [{"measurement": "Internalized activity 1h U87 MG", "setting": "U87 MG cells [3]; 1 h, Table S2", "value": "5.50 ± 0.80 % total activity (CPM) /106 cells"}, {"measurement": "internalized fraction", "setting": "U87 MG cells [3]; 1 h, U87 MG", "value": "5.5 ± 0.8", "unit": "% CPM/10^6 cells"}, {"measurement": "Internalized activity 2h U87 MG", "setting": "U87 MG cells [3]; 2 h, Table S2", "value": "5.67 ± 0.67 % total activity (CPM) /106 cells"}, {"measurement": "Internalized activity 4h U87 MG", "setting": "U87 MG cells [3]; 4 h, Table S2", "value": "7.35 ± 1.31 % total activity (CPM) /106 cells"}, {"measurement": "internalization in U87 MG cells", "setting": "U87 MG cells [3]; 24 h", "value": "28.0 ± 1.0", "unit": "%"}, {"measurement": "Internalized activity 24h U87 MG", "setting": "U87 MG cells [3]; 24 h, Table S2", "value": "28.03 ± 1.02 % total activity (CPM) /106 cells"}, {"measurement": "internalization compared to [^64Cu]Cu-NOTA-TP", "setting": "U87 MG cells [3]; 24 h, U87 MG", "value": "over 1.5 fold"}, {"measurement": "internalization compared to [^64Cu]Cu-NOTA-c(RGDfK)", "setting": "U87 MG cells [3]; 24 h, U87 MG", "value": "more than 2.4 fold"}, {"measurement": "internalized fraction", "setting": "U87 MG cells [3]; 24 h, U87 MG", "value": "28.0 ± 1.0", "unit": "% CPM/10^6 cells"}, {"measurement": "Internalized activity 48h U87 MG", "setting": "U87 MG cells [3]; 48 h, Table S2", "value": "24.08 ± 1.63 % total activity (CPM) /106 cells"}, {"measurement": "toxicity in normal SVG p12 astrocytes", "setting": "[4]", "value": "minimal toxicity"}, {"measurement": "binding to bovine serum albumin", "setting": "bovine serum albumin", "value": 52, "unit": "%"}, {"measurement": "improvement in potency compared to nonradioactive analogue", "setting": "U87 MG cells [5]", "value": "approximately 2500 fold"}, {"measurement": "Internalized activity 1h SVG p12", "setting": "SVG p12 cells [6]; 1 h", "value": "2.85 ± 0.56 % total activity (CPM) /106 cells"}, {"measurement": "Internalized activity 2h SVG p12", "setting": "SVG p12 cells [6]; 2 h", "value": "2.46 ± 0.90 % total activity (CPM) /106 cells"}, {"measurement": "Internalized activity 4h SVG p12", "setting": "SVG p12 cells [6]; 4 h", "value": "2.79 ± 0.38 % total activity (CPM) /106 cells"}, {"measurement": "Internalized activity 24h SVG p12", "setting": "SVG p12 cells [6]; 24 h", "value": "7.40 ± 1.43 % total activity (CPM) /106 cells"}, {"measurement": "Internalized activity 48h SVG p12", "setting": "SVG p12 cells [6]; 48 h", "value": "8.21 ± 0.74 % total activity (CPM) /106 cells"}, {"measurement": "free ^64Cu in plasma supernatant by radio-TLC", "setting": "[7]", "value": "no detectable free ^64Cu"}, {"measurement": "Efflux (retained activity) 0.5h U87 MG", "setting": "U87 MG cells [8]; [14]", "value": "88.93 ± 9.47 % total activity (CPM) /106 cells"}, {"measurement": "Efflux (retained activity) 1h U87 MG", "setting": "U87 MG cells [8]; 1 h after wash", "value": "93.32 ± 1.47 % total activity (CPM) /106 cells"}, {"measurement": "Efflux (retained activity) 2h U87 MG", "setting": "U87 MG cells [8]; 2 h after wash", "value": "83.19 ± 4.21 % total activity (CPM) /106 cells"}, {"measurement": "Efflux (retained activity) 4h U87 MG", "setting": "U87 MG cells [8]; 4 h after wash", "value": "76.55 ± 2.59 % total activity (CPM) /106 cells"}, {"measurement": "Efflux (retained activity) 24h U87 MG", "setting": "U87 MG cells [8]; 24 h after wash", "value": "51.36 ± 2.08 % total activity (CPM) /106 cells"}, {"measurement": "Uptake 1h SVG p12", "setting": "SVG p12 cells [9]; 1 h", "value": "3.63 ± 0.21 % total activity (CPM) /106 cells"}, {"measurement": "Uptake 2h SVG p12", "setting": "SVG p12 cells [9]; 2 h", "value": "4.96 ± 0.89 % total activity (CPM) /106 cells"}, {"measurement": "Uptake 4h SVG p12", "setting": "SVG p12 cells [9]; 4 h", "value": "5.80 ± 0.49 % total activity (CPM) /106 cells"}, {"measurement": "Uptake 24h SVG p12", "setting": "SVG p12 cells [9]; 24 h", "value": "10.87 ± 2.17 % total activity (CPM) /106 cells"}, {"measurement": "Uptake 48h SVG p12", "setting": "SVG p12 cells [9]; 48 h", "value": "8.38 ± 1.70 % total activity (CPM) /106 cells"}, {"measurement": "Uptake 1h U87 MG", "setting": "U87 MG cells [10]; 1 h, 37 °C, Table S1", "value": "6.21 ± 1.58 % total activity (CPM) /106 cells"}, {"measurement": "Uptake 2h U87 MG", "setting": "U87 MG cells [10]; 2 h, Table S1", "value": "6.89 ±1.73 % total activity (CPM) /106 cells"}, {"measurement": "Uptake 4h U87 MG", "setting": "U87 MG cells [10]; 4 h, Table S1", "value": "10.33 ± 1.86 % total activity (CPM) /106 cells"}, {"measurement": "uptake in U87 MG cells", "setting": "U87 MG cells [10]; 24 h", "value": "38.8 ± 1.8", "unit": "%"}, {"measurement": "Uptake 24h U87 MG", "setting": "U87 MG cells [10]; 24 h, Table S1", "value": "38.76 ± 1.82 % total activity (CPM) /106 cells"}, {"measurement": "uptake relative to [^64Cu]Cu-NOTA-TP", "setting": "U87 MG cells [10]; 24 h, U87 MG", "value": "approximately 1.3 times"}, {"measurement": "uptake relative to [^64Cu]Cu-NOTA-c(RGDfK)", "setting": "U87 MG cells [10]; 24 h, U87 MG", "value": "~2.7", "unit": "times"}, {"measurement": "Uptake 48h U87 MG", "setting": "U87 MG cells [10]; 48 h, Table S1", "value": "37.56 ± 1.30 % total activity (CPM) /106 cells"}, {"measurement": "Efflux (retained activity) 0.5h SVG p12", "setting": "SVG p12 cells [11]; [14]", "value": "85.25 ± 8.63 % total activity (CPM) /106 cells"}, {"measurement": "Efflux (retained activity) 1h SVG p12", "setting": "SVG p12 cells [11]; 1 h after wash", "value": "75.50 ± 10.93 % total activity (CPM) /106 cells"}, {"measurement": "Efflux (retained activity) 2h SVG p12", "setting": "SVG p12 cells [11]; 2 h after wash", "value": "54.29 ± 8.47 % total activity (CPM) /106 cells"}, {"measurement": "Efflux (retained activity) 4h SVG p12", "setting": "SVG p12 cells [11]; 4 h after wash", "value": "59.78 ± 2.75 % total activity (CPM) /106 cells"}, {"measurement": "Efflux (retained activity) 24h SVG p12", "setting": "SVG p12 cells [11]; 24 h after wash", "value": "31.32 ± 1.01 % total activity (CPM) /106 cells"}, {"measurement": "nuclear uptake", "setting": "SVG p12 cells [12]; SVG p12, 24 h", "value": "2.5 ± 0.8", "unit": "%"}, {"measurement": "nuclear uptake", "setting": "SVG p12 cells [12]; SVG p12, 48 h", "value": "0.9 ± 0.2", "unit": "%"}, {"measurement": "nuclear uptake", "setting": "SVG p12 cells [12]; SVG p12, 72 h", "value": "0.9 ± 0.3", "unit": "%"}, {"measurement": "cytoplasmic distribution", "setting": "U87 MG cells [13]; 24 h", "value": "17.4 ± 1.5", "unit": "%"}, {"measurement": "nuclear uptake", "setting": "U87 MG cells [13]; 24 h", "value": "6.0 ± 0.5", "unit": "%"}, {"measurement": "cytoplasmic distribution", "setting": "U87 MG cells [13]; 48 h", "value": "21.0 ± 0.7", "unit": "%"}, {"measurement": "cytoplasmic distribution", "setting": "U87 MG cells [13]; 72 h", "value": "15.4 ± 0.5", "unit": "%"}]}
